In ChEMBL document CHEMBL1128717, “2,4-Diaminopyrido[3,2-d]pyrimidine inhibitors of dihydrofolate reductase from Pneumocystis carinii and Toxoplasma gondii” (J Med Chem, 1995):

Key:
Dihydrofolate reductase [1] = biological target: T1, Dihydrofolate reductase (Pneumocystis carinii, UniProt P16184)
T1 sequence (P16184 whole entry): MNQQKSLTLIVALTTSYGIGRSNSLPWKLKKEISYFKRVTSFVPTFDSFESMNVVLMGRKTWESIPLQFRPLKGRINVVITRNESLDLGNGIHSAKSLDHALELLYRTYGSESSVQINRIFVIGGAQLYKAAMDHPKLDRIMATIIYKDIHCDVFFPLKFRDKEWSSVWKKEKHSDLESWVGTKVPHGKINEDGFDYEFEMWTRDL
Description: Concentration inhibiting Pneumocystis carinii dihydrofolate reductase

[2] = biological target: T2, Bifunctional dihydrofolate reductase-thymidylate synthase (Toxoplasma gondii, UniProt Q07422); assay: Concentration inhibiting Toxoplasma gondii dihydrofolate reductase
T2 sequence (Q07422 whole entry): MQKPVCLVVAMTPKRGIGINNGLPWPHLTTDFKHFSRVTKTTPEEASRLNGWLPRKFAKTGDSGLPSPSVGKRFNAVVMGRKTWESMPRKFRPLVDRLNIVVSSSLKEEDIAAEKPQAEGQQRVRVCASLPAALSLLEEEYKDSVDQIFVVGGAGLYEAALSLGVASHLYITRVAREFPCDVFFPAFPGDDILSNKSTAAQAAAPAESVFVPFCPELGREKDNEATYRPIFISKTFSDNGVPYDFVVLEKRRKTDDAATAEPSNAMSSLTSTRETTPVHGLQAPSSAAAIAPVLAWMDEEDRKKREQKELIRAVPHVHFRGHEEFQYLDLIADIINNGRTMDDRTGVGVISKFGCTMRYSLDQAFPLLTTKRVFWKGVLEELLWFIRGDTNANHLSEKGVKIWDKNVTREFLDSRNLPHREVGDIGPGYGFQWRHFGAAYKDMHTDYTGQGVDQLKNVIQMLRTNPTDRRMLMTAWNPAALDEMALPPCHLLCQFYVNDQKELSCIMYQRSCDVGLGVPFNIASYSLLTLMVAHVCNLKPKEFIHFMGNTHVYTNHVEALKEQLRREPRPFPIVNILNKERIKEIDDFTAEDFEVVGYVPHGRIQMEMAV

Dihydrofolate reductase [3] = biological target: T3, Dihydrofolate reductase (Rattus norvegicus, UniProt Q920D2)
T3 sequence (Q920D2 whole entry): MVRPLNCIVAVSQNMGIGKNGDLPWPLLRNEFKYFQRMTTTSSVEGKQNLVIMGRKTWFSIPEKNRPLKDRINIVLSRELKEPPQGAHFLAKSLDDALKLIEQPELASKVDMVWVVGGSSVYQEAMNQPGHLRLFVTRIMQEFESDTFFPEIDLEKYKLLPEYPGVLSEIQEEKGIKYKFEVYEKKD
Description: Concentration inhibiting rat liver dihydrofolate reductase.

Structure (SMILES)	IC50 (Dihydrofolate reductase [1]) [nM]	IC50 [2] [nM]	IC50 (Dihydrofolate reductase [3]) [nM]
CN(Cc1ccc2nc(N)nc(N)c2n1)c1ccc(Cl)cc1	62	15	22
CN(Cc1ccc2nc(N)nc(N)c2n1)c1ccc(Cl)c(Cl)c1	22	98	32
CN(Cc1ccc2nc(N)nc(N)c2n1)c1cccc(Cl)c1	2100	20	67
COc1ccc(OC)c(NCc2ccc3nc(N)nc(N)c3n2)c1	1400	100	430
COc1cc(N(C)Cc2ccc3nc(N)nc(N)c3n2)cc(OC)c1OC	130	4.7	26
COc1cc(NCc2ccc3nc(N)nc(N)c3n2)cc(OC)c1OC	2600	82	
